In patent publication EP4763839A1 (Pamplona Therapeutics (Shenzhen) Co., Ltd., priority 2023, dated 2025):

How the values were obtained:
IL-6 = experiment: Inhibition of R848-induced IL-6 release in human PBMCs, IL-6 ELISA; assay type: cell-based; conditions: compound 24 hours, then R848 10 µg/mL 5 hours
Description: Example 3: Detection of inhibition of R848-induced IL-6 release
Cryopreserved human PBMCs (Milestone® Biotechnologies, PB010C-W) were thawed and resuspended in RPMI-1640 medium (Gibco, 22400-105) supplemented with 10% fetal bovine serum (Gibco, 10099-141), 100 U/mL penicillin, and 100 µg/mL streptomycin (Gibco, 15140122). Subsequently, 190 µL of the PBMC suspension was added to each well of 96-well clear cell culture plates (Corning, 3599) to achieve a density of 1×10^5 cells/well. The cell plates were incubated at 37°C in a 5% CO2 incubator for 30 minutes. Then, 5 µL of diluted compound solution was added to the corresponding cell-seeded wells to achieve final concentrations ranging from 0.046 to 3,000 nM. The final concentration of DMSO was 0.1%. After the compound-treated cell plate was incubated at 37°C in a 5% CO2 incubator for 24 hours, 5 µL of R848 (MCE, HY-13740) was added to achieve a final concentration of 10 µg/mL. The cell plates were incubated again at 37°C in a 5% CO2 incubator for 5 hours, then centrifuged at 1,000 rpm for 1 minute. 100 µL of the cell supernatant from each well was transferred to a new 96-well clear cell culture plate for IL-6 concentration testing.
Interleukin-6 (IL-6) ELISA assay
The IL-6 concentration in the supernatant of R848-induced human PBMCs was determined using a Human IL-6 (interleukin-6) ELISA KIT (4Bio, CHE0009-048). IL-6 standard solutions at different concentrations, ranging from 3.9 to 250 pg/mL, were prepared according to the manufacturer's instructions. 100 µL of each concentration of the IL-6 standard solution and the pre-diluted test cell supernatant samples were added separately to anti-IL-6 antibody-coated and blocked clear 96-well plates, followed by incubation at 37°C for 1.5 hours. According to the product instructions, the plates were washed, 100 µL of biotinylated antibody was added, and the plates were incubated at 37°C for 1 hour. The plates were washed, 100 µL of enzyme conjugate working solution was added. The plates were incubated at 37°C for 30 minutes, and then washed. 100 µL of chromogenic substrate was added, and the plates were incubated at 37°C for 10-20 minutes. The reaction was terminated by adding 100 µL of stop solution. After the reaction, the OD value at 450 nm was measured in absorbance mode using an Envision microplate reader (PerkinElmer). A standard curve was plotted using the corrected OD values of the various concentrations of IL-6 standard solutions. The IL-6 concentration in each cell supernatant was then determined on the basis of the corresponding concentration for the corrected OD value of the test sample on the standard curve. […] Subsequently, the IC50 value of the compound was calculated by performing non-linear curve fitting of concentration versus inhibition rate using GraphPad Prism 9.

IRAK4 = molecular target: T1, IRAK4 (Homo sapiens, UniProt Q9NWZ3); experiment: Degradation of IRAK4 in THP1 cells, Western blot; assay type: cell-based; set-up: Degradation of IRAK4 in THP1 by compound; host or cells: THP-1; conditions: THP-1 cells, 24 hours of incubation; for DC50: IRAK4 protein by Western blot, read-out: DC50; for Dmax: maximum degradation rate, read-out: Dmax
T1 sequence (Q9NWZ3 1-460): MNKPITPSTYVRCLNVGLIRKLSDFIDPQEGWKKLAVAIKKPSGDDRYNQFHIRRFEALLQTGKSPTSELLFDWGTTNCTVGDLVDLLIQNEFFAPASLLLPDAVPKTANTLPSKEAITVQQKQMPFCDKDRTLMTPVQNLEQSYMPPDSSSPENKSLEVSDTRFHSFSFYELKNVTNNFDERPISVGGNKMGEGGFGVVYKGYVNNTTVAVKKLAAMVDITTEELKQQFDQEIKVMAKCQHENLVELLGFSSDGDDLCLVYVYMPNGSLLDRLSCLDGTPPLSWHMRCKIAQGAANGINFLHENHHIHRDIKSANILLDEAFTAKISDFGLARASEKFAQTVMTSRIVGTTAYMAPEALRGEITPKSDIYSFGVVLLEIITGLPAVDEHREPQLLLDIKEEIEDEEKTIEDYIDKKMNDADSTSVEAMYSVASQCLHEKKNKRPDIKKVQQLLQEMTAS
In short: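 THP1 cells treated 24 h, lysed; lysates normalised by BCA, 40 μg protein per lane on 10% SDS-PAGE, anti-IRAK4 Western blot with chemiluminescence detection.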

| Compound | IC50 (IL-6; PBMC) [nM] | DC50 (IRAK4) [nM] | Dmax (IRAK4) [%] | IC50 (IL-6) [nM] |
| --- | --- | --- | --- | --- |
| NC(=O)c1nn(-c2ccc(N3CCN(CC4CCN(c5ccc6c(c5)C(=O)N(C5CCC(=O)NC5=O)C6=O)CC4)CC3)cc2)cc1NC(=O)c1cccc(C(F)(F)F)n1 (stereo not shown) [Compound A122] | < 10 | < 100 | > 60 | – |
| Cn1c(=O)n(C2CCC(=O)NC2=O)c2cccc(N3CCC4(CCN(C(=O)c5ccc(-n6cc(NC(=O)c7cccc(C(F)(F)F)n7)c(C(N)=O)n6)cc5)C4)CC3)c21 (stereo not shown) [Compound A135] | < 10 | < 100 | > 60 | – |
| Cn1c(=O)n(C2CCC(=O)NC2=O)c2cccc(N3CCC4(CC3)CC(NCc3ccc(-n5cc(NC(=O)c6cccc(C(F)(F)F)n6)c(C(N)=O)n5)cc3)C4)c21 (stereo not shown) [Compound A137] | < 10 | < 100 | > 60 | – |
| Cn1c(=O)n(C2CCC(=O)NC2=O)c2cccc(N3CCC4(CCN(Cc5ccc(-n6cc(NC(=O)c7cccc(C(F)(F)F)n7)c(C(N)=O)n6)cc5)C4)CC3)c21 (stereo not shown) [Compound A140] | < 10 | < 100 | > 60 | – |
| COc1ccc(C(=O)N2CCN(CCN3CCN(c4ccc(-n5cc(NC(=O)c6cccc(C(F)(F)F)n6)c(C(N)=O)n5)cc4)CC3)CC2)cc1N1CCC(=O)NC1=O [Compound A143] | < 10 | < 100 | > 60 | – |
| COc1ccc(C(=O)N2CCC(CCN3CCN(c4ccc(-n5cc(NC(=O)c6cccc(C(F)(F)F)n6)c(C(N)=O)n5)cc4)CC3)CC2)cc1N1CCC(=O)NC1=O [Compound A144] | < 10 | < 100 | > 60 | – |
| COc1ccc(C(=O)N2CCC(CCN3CCN(c4ccc(-n5cc(NC(=O)c6cccc(C(F)(F)F)n6)c(C(F)F)n5)cc4)CC3)CC2)cc1N1CCC(=O)NC1=O [Compound A148] | 10 to 30 | 100 to 1000 | > 60 | – |
| Cn1c(=O)n(C2CCC(=O)NC2=O)c2cccc(N3CCN(CCN4CCN(c5ccc(N6C=C(NC(=O)c7cccc(C(F)(F)F)n7)C(=C=O)N6)cc5)CC4)CC3)c21 (stereo not shown) [Compound A180, N-(3-carbonyl-1-(4-(4-(2-(4-(1-(2,6-dioxopiperidin-3-yl)-3-methyl-2-oxo-2,3-dihydro-1H-benzo[d]imidazol-4-yl)piperazin-1-yl)ethyl)piperazin-1-yl)phenyl)-1H-pyrazol-4-yl)-6-(trifluoromethyl)picolinamide] | < 10 | < 100 | > 60 | – |
| Cn1c(=O)n(C2CCC(=O)NC2=O)c2cccc(N3CCC(CCN4CCN(c5ccc(-n6cc(NC(=O)c7cccc(C(F)(F)F)n7)c(C(N)=O)n6)cc5)CC4)CC3)c21 (stereo not shown) [Compound A182, N-(3-carbamoyl-1-(4-(4-(2-(1-(1-(2,6-dioxopiperidin-3-yl)-3-methyl-2-oxo-2,3-dihydro-1H-benzo[d]imidazol-4-yl)piperidin-4-yl)ethyl)piperazin-1-yl)phenyl)-1H-pyrazol-4-yl)-6-(trifluoromethyl)picolinamide] | < 10 | < 100 | > 60 | – |
| COc1ccc(C(=O)N2CCC(CCN3CCN(c4ccc(N5C=C(NC(=O)c6cccc(C(F)(F)F)n6)C(=C=O)N5)cc4)CC3)C2)cc1N1CCC(=O)NC1=O (stereo not shown) [Compound A183, N-(3-carbonyl-1-(4-(4-(2-(1-(3-(2,4-dioxotetrahydropyrimidin-1(2H)-yl)-4-methoxybenzoyl)pyrrolidin-3-yl)ethyl)piperazin-1-yl)phenyl)-1H-pyrazol-4-yl)-6-(trifluoromethyl)picolinamide] | < 10 | < 100 | > 60 | – |
| Cn1c(-c2ccc(N3CCC(CN4CCN(c5ccc(-n6cc(NC(=O)c7cccc(C(F)(F)F)n7)c(C(N)=O)n6)cc5)CC4)C3)cc2)nn(C2CCC(=O)NC2=O)c1=O (stereo not shown) [Compound A187] | < 10 | < 100 | > 60 | – |
| Cn1c(-c2ccc(N3CCC(CN4CCN(c5ccc(-n6cc(NC(=O)c7cccc(C(F)(F)F)n7)c(C(N)=O)n6)cc5)CC4)CC3)cc2)nn(C2CCC(=O)NC2=O)c1=O (stereo not shown) [Compound A189] | 10 to 30 | 100 to 1000 | > 60 | – |
| NC(=O)c1nn(-c2ccc(N3CCN(CC4CCN(c5ccc(N6CCC(=O)NC6=O)cc5)CC4)CC3)cc2)cc1NC(=O)c1cccc(C(F)(F)F)n1 [Compound A192, N-(3-carbamoyl-1-(4-((1-(4-(2,4-dioxotetrahydropyrimidin-1(2H)-yl)phenyl)piperidin-4-yl)methyl)piperazin-1-ylphenyl)-1H-pyrazol-4-yl)-6-(trifluoromethyl)picolinamide] | 10 to 30 | – | – | – |
| NC(=O)c1nn(-c2ccc(N3CCN(CCC4CCN(c5ccc(NC6CCC(=O)NC6=O)cc5F)CC4)CC3)cc2)cc1NC(=O)c1cccc(C(F)(F)F)n1 (stereo not shown) [Compound A194, N-(3-Carbonyl-1-(4-(4-(2-(4-(((2,6-dioxopiperidin-3-yl)amino)-2-fluorophenyl)piperidin-4-yl)ethyl)piperazin-1-yl)phenyl)-1H-pyrazol-4-yl)-6-(trifluoromethyl)picolinamide] | < 10 | – | – | – |
| NC(=O)c1nn(-c2ccc(N3CCN(CCC4CCN(c5cccc(NC6CCC(=O)NC6=O)c5)CC4)CC3)cc2)cc1NC(=O)c1cccc(C(F)(F)F)n1 (stereo not shown) [Compound A196] | < 10 | < 100 | > 60 | – |
| NC(=O)c1nn(-c2ccc(N3CCN(CC4CCN(c5cccc(NC6CCC(=O)NC6=O)c5)CC4)CC3)cc2)cc1NC(=O)c1cccc(C(F)(F)F)n1 (stereo not shown) [Compound A197] | 10 to 30 | < 100 | > 60 | – |
| NC(=O)c1nn(-c2ccc(CN3CCC4(CC3)CCN(c3ccc5c(c3)C(=O)N(C3CCC(=O)NC3=O)C5=O)CC4)cc2)cc1NC(=O)c1cccc(C(F)(F)F)n1 (stereo not shown) [Compound A222, N-(3-carbamoyl-1-(4-((9-(2-(2,6-dioxopiperidin-3-yl)-1,3-dioxoisoindolin-5-yl)-3,9-diazaspiro[5.5]undecan-3-yl)methyl)phenyl)-1H-pyrazol-4-yl)-6-(trifluoromethyl)picolinamide] | 10 to 30 | – | – | – |
| NC(=O)c1nn(-c2ccc(CN3CCC4(CC3)CN(c3ccc5c(c3)C(=O)N(C3CCC(=O)NC3=O)C5=O)C4)cc2)cc1NC(=O)c1cccc(C(F)(F)F)n1 (stereo not shown) [Compound A224, N-(3-carbamoyl-1-(4-((2-(2-(2,6-dioxopiperidin-3-yl)-1,3-dioxoisoindolin-5-yl)-2,7-diazaspiro[3.5]nonan-7-yl)methyl)phenyl)-1H-pyrazol-4-yl)-6-(trifluoromethyl)picolinamide] | 10 to 30 | 100 to 1000 | > 60 | – |
| NC(=O)c1nn(-c2ccc(N3CCN(CC4CCN(c5ccc6c(c5)C(=O)N(C5CCC(=O)NC5=O)C6=O)C4)CC3)cc2)cc1NC(=O)c1cccc(C(F)(F)F)n1 (stereo not shown) [Compound A227] | < 10 | < 100 | > 60 | – |
| N-(3-carbamoyl-1-(4-((1-(3-(2,4-dioxotetrahydropyrimidin-1(2H)-yl)-4-methoxybenzoyl)piperidin-4-yl)methyl)piperazin-1-yl)phenyl)-1H-pyrazol-4-yl)-6-(trifluoromethyl)picolinamide [Compound A175] | – | – | – | < 10 |
